From patent publication US7211545B2, “Imidazo[1,2-a]pyrimidine and fungicidal compositions containing thereof” (Sumitomo Chemical Company, Limited, priority 2001, dated 2007)

Tests used:
Sphaerotheca fuliginea = assay: Test Example 4: preventive efficacy against Sphaerotheca fuliginea on cucumber (comparison with Reference Compound A); format: in vivo; conditions: 500 ppm flowable, foliar spray on cucumber leaves, inoculated after spraying, 23° C., 12 days
Method: The control effect of the present compound was evaluated by visually observing the area of a lesion on a plant under test in investigation and comparing the area of a lesion in a non-treatment group and the area of a lesion in a group treated with the present compound. Sand loam was compacted in plastic pots, cucumbers (Ochiai Aonagafushinari) were seeded and grown in a greenhouse for 12 days. Then, each of Reference Compound A and Compound 182 was formulated into flowable formulations according to Formulation Example 6, then, diluted with water to provide prescribed concentration (500 ppm), and sprayed over the foliage so as to give sufficient adhesion on the surface of cucumber leaves. After spraying, the plants were air-dried, and inoculated with spores of Sphaerotheca fuliginea. After the inoculation, the cucumbers were placed at 23° C. for 12 days, and the control effect was examined. As a result, areas of lesions on the plant treated with Reference Compound A were in the range of 75% to 100% on those of the untreated groups, on the other hand, areas of lesions on the plant treated with Compound 182 was not greater than 1% of infested areas on those of the untreated groups.

Botrytis cinerea = assay: Test Example 3: preventive efficacy against Botrytis cinerea on cucumber (comparison with Reference Compound A); format: in vivo; conditions: 500 ppm flowable, foliar spray on cucumber cotyledons, inoculated after spraying, 12° C. humid, 4 days
Method: The control effect of the present compound was evaluated by visually observing the area of a lesion on a plant under test in investigation and comparing the area of a lesion in a non-treatment group and the area of a lesion in a group treated with the present compound. Sand loam was compacted in plastic pots, cucumbers (Ochiai Aonagafushinari) were seeded and grown in a greenhouse for 10 days. Then, each of Reference Compound A and Compound 182 was formulated into a flowable formulation according to Formulation Example 6, then, diluted with water to provide prescribed concentration (500 ppm), and sprayed over the foliage so as to give sufficient adhesion on the surface of cucumber cotyledons. After spraying, the plants were air-dried, and PDA medium containing spores of Botrytis cinerea were attached on cucumber cotyledons. After the inoculation, the cucumbers were placed in a humid condition at 12° C. for 4 days, and the control effect was examined. As a result, areas of lesions on the plant treated with Reference Compound A were in the range of 75% to 100% on those of the untreated groups, on the other hand, areas of lesions on the plant treated with Compound 182 was not greater than 1% of areas of lesions on those of the untreated groups.

SMILES	melting point [°C]	areas of lesions on treated plant as % of infested areas on untreated groups (Sphaerotheca fuliginea) [%]	areas of lesions on treated plant as % of areas of lesions on untreated groups (Botrytis cinerea) [%]
CCCN(CCC)c1c(-c2c(F)cc(F)cc2F)c(Cl)nc2nccn12 [Compound 8, 5-(di-n-propylamino)-6-(2,4,6-trifluorophenyl)-7-chloroimidazo[1,2-a]pyrimidine]	95.4	–	–
Cc1cc(C)n(-c2c(-c3c(F)cc(F)cc3F)c(Cl)nc3nccn23)n1 [Compound 89, 5-(3,5-dimethylpyrazol-1-yl)-6-(2,4,6-trifluorophenyl)-7-chloroimidazo[1,2-a]pyrimidine]	150.4	–	–

More lines, main results first:

melting point [°C]	SMILES	areas of lesions on treated plant as % of infested areas on untreated groups (Sphaerotheca fuliginea) [%]	areas of lesions on treated plant as % of areas of lesions on untreated groups (Botrytis cinerea) [%]
183.8	CC1CCN(c2c(-c3c(F)cccc3Cl)c(Cl)nc3nccn23)CC1 [Compound 182, 5-(4-methylpiperidin-1-yl)-6-(2-chloro-6-fluorophenyl)-7-chloroimidazo[1,2-a]pyrimidine]	≤ 1	≤ 1
200.8	CC1CCN(c2c(-c3c(F)cc(F)cc3F)c(Cl)nc3nccn23)CC1 [Compound 55, 5-(4-methylpiperidin-1-yl)-6-(2,4,6-trifluorophenyl)-7-chloroimidazo[1,2-a]pyrimidine]	–	–
144.5	Cc1nc2nccn2c(N2CCC(C)CC2)c1-c1c(F)cccc1Cl [Compound 428, 5-(4-methylpiperidin-1-yl)-6-(2-chloro-6-fluorophenyl)-7-methylimidazo[1,2-a]pyrimidine]	–	–
